Marks after values point to notes of the source that are not given here.
Experiments:
[1] = test system: human colon carcinoma HT-29; test: Tumor growth inhibition (relative tumor volume, T/C) in s.c. HT-29 xenograft model; format: in vivo, human (xenograft in NMRI:nu/nu mice)
Experimental: The cells were obtained from ATCC and are cryo-preserved within the EPO tumor bank. They were thawed, expanded in vitro and transplanted as cell suspension subcutaneously (s.c.) in female NMRI:nu/nu mice. […] It was therefore selected for this study.
For experimental use 10^7 tumor cells/mouse from the in vitro passage were transplanted s.c. into the flank of each of 10 mice/group at day 0.
(§1) […] The application volume was 0.2 ml/20 g mouse body weight. The test compounds, the vehicle controls and the reference compounds were all given intravenously (i.v.).
(§2) Tumor growth inhibition was used as therapeutic parameter. Additionally, body weight change was determined as signs for toxicity (particularly, potential hematological or gastrointestinal side effects).
Tumor diameters were measured twice weekly with a caliper. Tumor volumes were calculated according to V=(length×(width)^2)/2. For calculation of the relative tumor volume (RTV) the tumor volumes at each measurement day were related to the day of first treatment. At each measurement day the median and mean tumor volumes per group and also the treated to control (T/C) values in percent were calculated.
Descriptive statistics were performed on the data of body weight and tumor volume. […] Statistical evaluation was performed with the U-test of Mann and Whitney with a significance level of p≦0.05, using the Windows program […] 6.
Solutions were prepared immediately before injection by solving the conjugates in saline solution by vortexing in combination with centrifugation until a clear solution of the necessary concentration of the drug was obtained.

[2] = Body weight change as sign of toxicity in HT-29 xenograft-bearing mice; format: in vivo, NMRI:nu/nu mice
Experimental: as §1, §2
Individual body weights of mice were determined twice weekly and mean body weight per group was related to the initial value in percent (body weight change, BWC).
On the day of necropsy mice were sacrificed by cervical dislocation and inspected for gross organ changes.
The loss of body weight is known to be an indicator of gastrointestinal and hepatotoxicity of the tested compound.

[3] = test system: human lung carcinoma LXFL-529; test: Tumor growth inhibition (relative tumor volume) in LXFL-529 xenograft model; format: in vivo, human (xenograft in NMRI nu/nu mice)
Description: (§3) Mouse strain: NMRI nu/nu, female Animals supplied by: Charles River, Germany Age of mice at implantation: 5-7 weeks
(§4) The tumor xenografts LXFL-529 and MAXF-401 (Fiebig H H, Berger D P, Dengler W A, Wallbrecher E, Winterhalter B R: Combined In Vitro/In Vivo Test Procedure with Human Tumor Xenografts for New Drug Development. Contrib. Oncol., Basel, Karger, 1992, Vol. 42, pp 321-351) used in this study were derived from surgical specimen from patients treated at the University Hospital in Freiburg, Germany, and directly implanted into nude mice. Prior to surgery, most of the patients had not received any chemotherapy.
(§5) Tumor fragments were obtained from xenografts in serial passage in nude mice. After removal from donor mice, tumors were cut into fragments (4-5 mm diameter) and placed in PBS until subcutaneous implantation. Recipient mice were anaesthetized by inhalation of isoflurane. A small incision was made in the back and one tumor fragment per animal was transplanted with tweezers. The mice were monitored daily.
At randomization, tumor-bearing animals were stratified according to tumor volume into treatment and vehicle (control) groups. Only animals carrying one tumor of appropriate size (approximately 50-250 mm^3) were considered for randomization. Mice were randomized when the required number of mice qualified for randomization. The day of randomization was designated as day 0, which was also the first day of dosing.
(§6) All test items were formulated in 0.9% NaCl solution and given as i.v. bolus injection.
(§7) Measurement of tumor volume and body weight as well as calculations of relative tumor volumes were carries out analgue to the procedure described in 2.3.

[4] = test system: human mammary carcinoma (MAXF-401); test: Tumor growth inhibition (relative tumor volume) in MAXF-401 xenograft model; format: in vivo, human (xenograft in NMRI nu/nu mice)
Description: as §3, §4, §5
At randomization, tumor-bearing animals were stratified according to tumor volume into treatment and vehicle (control) groups. Only animals carrying one tumor of appropriate size (approximately 50-250 mm^3) were considered for randomization. Mice were randomized when the required number of mice qualified for randomization. […]

[5] = Body weight change / toxicity in MAXF-401 xenograft-bearing mice; format: in vivo, NMRI nu/nu mice; settings: Table 18, CA4P 50, 40 mg/kg/inj. d 0, 10, CCs1 60 d 0, CCs2 60, 40 d 0, 10
Experimental: All experiments were conducted according to the guidelines of the German Animal Welfare Act (Tierschutzgesetz). Animal health was examined prior to tumor implantation and randomization to ensure that only animals without any symptoms of disease were selected to enter testing procedures. During the experiments, animals were monitored daily regarding tumor burden, general condition, feed and water supply.
as §6, §7

## CCc1c2c(nc3ccc(OC(=O)N4CCC(N5CCCCC5)CC4)cc13)-c1cc3c(c(=O)n1C2)COC(=O)[C@]3(O)CC [Irinotecan]
[1]; Table 14, optimum at day 54, Irinotecan 15 mg/kg/inj. d 9-13, conjugates 60 mg/kg/inj. d 9
  RTV T/C (%) Optimum (at day): 48.2%
[1]; Table 15, Irinotecan 15 mg/kg/inj. d 8-12, conjugates 60 mg/kg/inj. d 8, day of optimum printed below value (30; CSN10 34; CSN13 13)
  RTV T/C (%) Optimum (at day): 27.7* %
[1]; Table 16, 60 mg/kg/inj. d 7, day of optimum in parentheses (21-42)
  RTV T/C (%) Optimum (at day): 66.3%
[2]; Table 14, number of toxic deaths of 8 mice, Irinotecan 15 mg/kg/inj. d 9-13, conjugates 60 mg/kg/inj. d 9, day of death in parentheses
  Toxic death (day): 1
[2]; Table 17, number of toxic deaths per group (day), treatment d 8, Irinotecan 60, CSN21 30, CSN23 60, CSN22 and CIr1-3 80 mg/kg/inj.
  Toxic death (at day): 1 (20)

## COc1cc([C@@H]2c3cc4c(cc3[C@@H](O[C@@H]3O[C@@H]5CO[C@@H](C)O[C@H]5[C@H](O)[C@H]3O)[C@H]3COC(=O)[C@H]23)OCO4)cc(OC)c1O [etoposide, Etoposide]
[3]; LXFL-529 xenografts in nude mice, tumor shrinkage after day 7
  loss of tumor volume between d7 and d16: 26%
[3]; LXFL-529 xenografts, at the last day of the experiment
  tumors still shrinking or at least stabile: 2/5

## COc1cc([C@@H]2c3cc4c(cc3[C@@H](O[C@@H]3O[C@@H]5CO[C@@H](C)O[C@H]5[C@H](O)[C@H]3O)[C@H]3COC(=O)[C@H]23)OCO4)cc(OC)c1O [V-16 (Etoposid)]
[3]; Table 19, day 16, treatment d 0, 3, 7, Etoposid 20 mg/kg/inj., CEt1 20, 40, 50 mg/kg/inj.
  Tumor volume cm^3/d 16: 0.293 +/− 0.137 cm^3
[3]; Table 19, optimum at day 16, treatment d 0, 3, 7, Etoposid 20 mg/kg/inj., CEt1 20, 40, 50 mg/kg/inj.
  RTV T/C (%) Optimum (at day): 15.5 (16) %
[3]; Table 19, re-normalized on day 7, treatment d 0, 3, 7, Etoposid 20 mg/kg/inj., CEt1 20, 40, 50 mg/kg/inj.
  RTV T/C (%) re-normalized on day 7: 22.6%

## COc1ccc(/C=C\c2cc(OC)c(OC)c(OC)c2)cc1OP(=O)([O-])[O-].[Na+].[Na+] [combretastatin A4 phosphate, Combretastatin A4 phosphate disodium salt]
[4]; MAXF-401 xenografts in nude mice, i.v. bolus
  inhibition of tumor growth: only modest anti-tumor activity
[4]; Table 18, CA4P 50, 40 mg/kg/inj. d 0, 10, CCs1 60 d 0, CCs2 60, 40 d 0, 10, day of optimum in parentheses
  RTV T/C (%) Optimum (at day): 59.8 (13) %
[5]; day of value in parentheses
  BWC [%] (at day): −1.8 (7) %
[5]; deaths of 4 mice (day)
  Mortality (at day): 0

Reference: US20140073778A9, “CONJUGATES COMPRISING HYDROXYALKYL STARCH AND A CYTOTOXIC AGENT AND PROCESS FOR THEIR PREPARATION” (priority 2010, published 2014)
